Where no end group is shown, it is not given here.
Legend:
Format in all cases: cell-based
[1] = tested on: normal human dermal fibroblasts; assay: Ultrastructural study of caveolae in human fibroblasts; conditions: 0.5 ppm (1% of stock solution at 50 ppm), 48 hours
Procedure: The goal of this study is to study at the ultrastructural level the caveolae in human dermal fibroblasts.
Protocol: Normal human dermal fibroblasts in culture are treated with a 1% stock solution at 50 ppm of peptide SEQ ID No. 4 for 48 hours (the medium in the presence of the active ingredient is changed every 24 hours).

HMG-CoA reductase [2] = assay: Expression of HMG-CoA reductase in normal human keratinocytes (immunofluorescence); conditions: 0.5 ppm, 48 hours
Procedure: The goal of this study is to determine the influence of peptide SEQ ID No. 4 on the expression of HMG-CoA reductase in normal human keratinocytes.
Protocol: Normal human dermal keratinocytes in culture are treated with a 1% stock solution at 50 ppm of peptide SEQ ID No. 4 for 48 hours (the medium in the presence of the active ingredient is changed every 24 hours). The cells are then washed and fixed in cold methanol for 4 minutes at 4° C. The cells are incubated in the presence of a polyclonal rabbit antibody specific for HMG-CoA reductase (Millipore, Upstate), and then a secondary antibody coupled with a fluorescent dye. The cells are then examined by epifluorescence microscope (Nikon Eclipse E600 microscope).

[3] = tested on: normal human keratinocytes; assay: Ultrastructural study of lamellar bodies in human keratinocytes (transmission electron microscopy); conditions: 48 hours
Procedure: The goal of this study is to study in an ultrastructural manner, in transmission electron microscopy, keratinocytes treated by peptide SEQ ID No. 5 at 0.5 ppm.
Normal human keratinocytes in culture are treated with a 1% stock solution at 50 ppm of peptide SEQ ID No. 5 for 48 hours (the medium in the presence of the active ingredient is changed every 24 hours). The cells are washed in PBS, and then are fixed by Karnosky hypertonic fixation (4% paraformaldehyde, 5% glutaraldehyde in a 0.08M phosphate buffer) 1 hour at ambient temperature and then 24 hours at 4° C. The cells are detached from the support by scraping and centrifuged 5 minutes at 1000 rpm. The supernatant is eliminated and a 1M sodium cacodylate buffer is deposited on the residue. The cells are mixed with 2% agar and then postfixed by osmium tetraoxide for 1 hour. The specimens are then dehydrated by successive passages in a series of alcohol (from 50 to 100%). The cells are then coated in a resin. The polymerization is carried out for approximately 12 hours at 60° C. Semi-thin sections of 0.5 μm are made with an ultramicrotome. The sections are deposited on a heat bonded slide and then colored with toluidine blue. The slides are then dehydrated again and mounted in a suitable medium. […]

[4] = tested on: normal human keratinocytes; assay: Differentiation study of human keratinocytes (pankeratin immunofluorescence); conditions: 0.5 ppm, 48 hours, anti-cytopankeratin antibody, epifluorescence microscope
Procedure: The goal of this study is to determine the influence of peptide SEQ ID No. 5 on epidermal differentiation.
Protocol: Normal human keratinocytes in culture are treated with a 1% stock solution at 50 ppm of peptide SEQ ID No. 4 for 48 hours (the medium in the presence of the active ingredient is changed every 24 hours). The cells are then washed and fixed with cold methanol for 4 minutes at 4° C.

[5] = tested on: normal human keratinocytes; assay: Protective effect on skin cells subjected to UVB radiation (MTT cellular viability); conditions: 0.5 ppm, 24 hours before and 24 hours after UVB 50 mJ/cm^2, versus untreated irradiated control
Procedure: The goal of this study is to determine the protective effect of peptide SEQ ID No. 5 with relation to normal human keratinocytes subjected to stress by UVB radiation. To do this, cellular viability tests were conducted by the MTT technique.
Protocol: The normal human keratinocytes are treated with a 1% solution, a solution at 50 ppm of peptide SEQ ID No. 5, for 24 hours, irradiated by UVB (50 mJ/cm^2) and then cultivated again 24 hours in the presence of the same concentration of peptide SEQ ID No. 5. Untreated and irradiated controls are carried out under the same conditions. At the end of the experiment, the cells are incubated in a solution containing 0.1 mg/ml of MTT (3-[4,5-dimethylthiazol-2-yl]-2,5-diphenyltetrazolium bromide). This compound is absorbed by the living cells and then metabolized by mitochondrial enzymes into a blue violet compound, formazan, that will be assayed by spectrophotometry at 540 nm. The optical density (O.D.) Is then directly proportional to the mitochondrial enzymatic activity as well as to the number of living cells.

HMG-CoA reductase [6] = assay: Expression of HMG-CoA reductase in skin biopsies (immunolabelling); conditions: 0.5 ppm applied topically on human skin samples in culture, 24 hours or 48 hours
Procedure: The goal of this study is to determine the influence of peptide SEQ ID No. 5 on the expression of HMG-CoA reductase.
Protocol: Samples of human skin are placed in culture at the air/liquid interface. A 1% stock solution at 50 ppm of peptide SEQ ID No. 5 is applied topically and then the samples are incubated for 24 hours or 48 hours.
These skin samples are then fixed with formaldehyde and then enclosed in paraffin. Sections of 2 to 3 μm are then made. Immunolabelling is carried out after unmasking the specific sites by microwave treatment and then incubation in trypsin. Immunolabelling is carried out by using a polyclonal rabbit antibody specific for HMG-CoA reductase (Millipore, Upstate), and then a secondary antibody, coupled with a fluorescent dye. The skin sections are then examined by epifluorescence microscope (Nikon Eclipse E600 microscope).

Substance | caveolae in treated cells in comparison with untreated control cells [1] | HMG-CoA reductase cytoplasmic immunofluorescence in treated cells (HMG-CoA reductase [2]) | Golgi complex development / production of lamellar bodies (Odland bodies) versus control cells ([3]; 0.5 ppm (1% of stock solution at 50 ppm), transmission electron microscopy) | lipid synthesis in normal human keratinocytes ([3]; 0.5 ppm, inferred from ultrastructural study) | expression of pankeratins [4] | increase of cellular viability after UVB irradiation (MTT) [5] [%] | HMG-CoA reductase immunofluorescence in the upper layers of the epidermis, relative to untreated control (HMG-CoA reductase [6])
Arg-Gly-Lys-Ser (RGKS) [Peptide SEQ ID No. 4] | significant increase in caveolae | more intense cytoplasmic fluorescence |  |  |  |  | 
Arg-Gly-Lys-Ser-NH2 (RGKS-NH2) [Peptide SEQ ID No. 5] |  |  | Golgi complex is substantially more developed than in the control cells | capable of inducing an increase in lipid synthesis | increases the expression of pankeratins | 16 | stronger fluorescence

Reference: patent US8598124B2, “Peptides derived from HMG-CoA reductase and cosmetic and/or pharmaceutical composition containing same” (ISP Investments Inc., priority 2008, dated 2013)
